From the NIST ThermoML archive (doi:10.1021/je300202z)
Several values for one entry are separate records, joined by “and”; a condition that tells them apart may be missing. Equal entries are not always repeated. Numbers after ± are expanded uncertainties.

Conditions: Liquid, Ebulliometric method (Recirculating still)

vapor or sublimation pressure (388.6 K) [kPa] | vapor or sublimation pressure (396.1 K) [kPa] | vapor or sublimation pressure (400.4 K) [kPa] | vapor or sublimation pressure (402.3 K) [kPa] | vapor or sublimation pressure (404.2 K) [kPa] | vapor or sublimation pressure (407.5 K) [kPa] | vapor or sublimation pressure (407.8 K) | Structure (SMILES) | vapor or sublimation pressure (408.2 K) [kPa] | vapor or sublimation pressure (416.7 K) [kPa] | vapor or sublimation pressure (421.5 K) [kPa] | vapor or sublimation pressure (423.7 K) [kPa] | vapor or sublimation pressure (425.8 K) [kPa] | vapor or sublimation pressure (428.8 K) | vapor or sublimation pressure (429.7 K) [kPa]
53.33 ± 2.4 | 69.33 ± 2.5 | 80 ± 2.8 | 85.33 ± 3 | 90.66 ± 3.2 | 100.93 ± 3.3 | 101.33 ± 3.1 kPa and 100.93 ± 5.6 kPa | CCOCCO [2-ethoxyethan-1-ol] |  |  |  |  |  |  | 
 |  |  |  |  |  |  | CCOCCOC(C)=O [2-ethoxyethyl ethanoate] | 53.33 ± 2.1 | 69.33 ± 2.2 | 80 ± 2.5 | 85.33 ± 2.7 | 90.66 ± 3.3 | 101.33 ± 3.7 kPa and 100.93 ± 5.5 kPa | 100.93 ± 2.8
